# Data reported in US6737383B1, “Herbicidal oxadiazolidines” (priority 1999, dated 2004).
# Experiments:
# [1] = system: bedstraw; test: Test B pre/postemergence bedstraw; type: in vivo, Galium aparine
# Method in brief: (§1)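 Response is a visual 0-to-10 score relative to untreated plants, where 0 means no effect and 10 means complete control, taken twelve to sixteen days after application. Treatments went onto soil at planting and onto foliage of 1- to 4-leaf plants, using a surfactant-containing non-phytotoxic solvent.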
# [2] = system: blackgrass; test: Test B pre/postemergence blackgrass; type: in vivo, Alopecurus myosuroides
# Method in brief: as §1
# [3] = system: surinam grass; test: Test B pre/postemergence surinam grass; type: in vivo, Brachiaria decumbens
# Method in brief: as §1
# [4] = system: cocklebur; test: Test B pre/postemergence cocklebur; type: in vivo, Xanthium strumarium
# Method in brief: as §1
# [5] = system: corn; test: Test B pre/postemergence corn; type: in vivo, Zea mays
# Method in brief: as §1
# [6] = system: crabgrass; test: Test B pre/postemergence crabgrass; type: in vivo, Digitaria sanguinalis
# Method in brief: as §1
# [7] = system: giant foxtail; test: Test B pre/postemergence giant foxtail; type: in vivo, Setaria faberii
# Method in brief: as §1
# [8] = system: morningglory; test: Test B pre/postemergence morningglory; type: in vivo, Ipomoea hederacea
# Method in brief: as §1
# [9] = system: pigweed; test: Test B pre/postemergence pigweed; type: in vivo, Amaranthus retroflexus
# Method in brief: as §1
# [10] = system: rape; test: Test B pre/postemergence rape; type: in vivo, Brassica napus
# Method in brief: as §1
# [11] = system: soybean; test: Test B pre/postemergence soybean; type: in vivo, Glycine max
# Method in brief: as §1
# [12] = system: velvetleaf; test: Test B pre/postemergence velvetleaf; type: in vivo, Abutilon theophrasti
# Method in brief: as §1
# [13] = system: wheat; test: Test B pre/postemergence wheat; type: in vivo, Triticum aestivum
# Method in brief: as §1
# [14] = system: wild oat; test: Test B pre/postemergence wild oat; type: in vivo, Avena fatua
# Method in brief: as §1
# [15] = system: purple nutsedge; test: Test B pre/postemergence purple nutsedge; type: in vivo, Cyperus rotundus
# Method in brief: as §1
# [16] = Preemergence, Rate 62 g/ha, scale of 0 to 10 where 0 is no effect and 10 is complete control
# [17] = Preemergence, Rate 250 g/ha, scale of 0 to 10 where 0 is no effect and 10 is complete control
# [18] = Preemergence, Rate 500 g/ha, scale of 0 to 10 where 0 is no effect and 10 is complete control
# [19] = Rate 62 g/ha, Postemergence, scale 0 to 10 (0 no effect, 10 complete control)
# [20] = Rate 125 g/ha, Postemergence, scale of 0 to 10 where 0 is no effect and 10 is complete control
# [21] = Rate 250 g/ha, Postemergence, scale of 0 to 10 where 0 is no effect and 10 is complete control
# [22] = Rate 500 g/ha, Postemergence, scale 0 to 10, 0 no effect, 10 complete control
compound,measurement,setting,value
CCN(C(=O)n1oc(=O)n(C2CCCCC2)c1=O)C1CCCCC1 [Compound 308],Bedstraw plant response rating,[1]; [16],0
same,Bedstraw plant response rating (0 to 10 scale),"[1]; Preemergence, Rate 125 g/ha",0
same,Bedstraw plant response rating,[1]; [17],0
same,Bedstraw plant response rating,[1]; [18],0
same,Bedstraw plant response rating,[1]; [19],0
same,Bedstraw plant response rating,[1]; [20],0
same,"Plant response rating, Bedstraw",[1]; [21],0
same,Bedstraw plant response rating,[1]; [22],0
same,Blackgrass plant response rating,[2]; [16],0
same,Blackgrass plant response rating (0 to 10 scale),"[2]; Preemergence, Rate 125 g/ha",0
same,Blackgrass plant response rating,[2]; [17],0
same,Blackgrass plant response rating,[2]; [18],0
same,Blackgrass plant response rating,[2]; [19],0
same,Blackgrass plant response rating,[2]; [20],0
same,"Plant response rating, Blackgrass",[2]; [21],0
same,Blackgrass plant response rating,[2]; [22],0
same,B. signalgrass plant response rating,[3]; [16],0
same,"B. signalgrass plant response rating (0 to 10 scale, 0 is no effect, 10 is complete control)","[3]; Preemergence, Rate 125 g/ha",0
same,B. signalgrass plant response rating,[3]; [17],0
same,B. signalgrass plant response rating,[3]; [18],0
same,B. signalgrass plant response rating,[3]; [19],0
same,B. signalgrass plant response rating,[3]; [20],0
same,"Plant response rating, B. signalgrass",[3]; [21],0
same,B. signalgrass plant response rating,[3]; [22],0
same,Cocklebur plant response rating,[4]; [16],0
same,Cocklebur plant response rating (0 to 10 scale),"[4]; Preemergence, Rate 125 g/ha",0
same,Cocklebur plant response rating,[4]; [17],0
same,Cocklebur plant response rating,[4]; [18],0
same,Cocklebur plant response rating,[4]; [19],0
same,Cocklebur plant response rating,[4]; [20],0
same,"Plant response rating, Cocklebur",[4]; [21],0
same,Cocklebur plant response rating,[4]; [22],0
same,Corn plant response rating,[5]; [16],0
same,Corn plant response rating (0 to 10 scale),"[5]; Preemergence, Rate 125 g/ha",0
same,Corn plant response rating,[5]; [17],0
same,Corn plant response rating,[5]; [18],0
same,Corn plant response rating,[5]; [19],0
same,Corn plant response rating,[5]; [20],0
same,"Plant response rating, Corn",[5]; [21],0
same,Corn plant response rating,[5]; [22],0
same,Crabgrass plant response rating,[6]; [16],0
same,Crabgrass plant response rating (0 to 10 scale),"[6]; Preemergence, Rate 125 g/ha",0
same,Crabgrass plant response rating,[6]; [17],0
same,Crabgrass plant response rating,[6]; [18],0
same,Crabgrass plant response rating,[6]; [19],0
same,Crabgrass plant response rating,[6]; [20],0
same,"Plant response rating, Crabgrass",[6]; [21],0
same,Giant foxtail plant response rating,[7]; [16],0
same,Giant foxtail plant response rating (0 to 10 scale),"[7]; Preemergence, Rate 125 g/ha",0
same,Giant foxtail plant response rating,[7]; [17],0
same,Giant foxtail plant response rating,[7]; [18],0
same,Giant foxtail plant response rating,[7]; [19],0
same,Giant foxtail plant response rating,[7]; [20],0
same,"Plant response rating, Giant foxtail",[7]; [21],0
same,Morningglory plant response rating,[8]; [16],0
same,Morningglory plant response rating (0 to 10 scale),"[8]; Preemergence, Rate 125 g/ha",0
same,Morningglory plant response rating,[8]; [17],0
same,Morningglory plant response rating,[8]; [18],0
same,Morningglory plant response rating,[8]; [19],0
same,Morningglory plant response rating,[8]; [20],0
same,"Plant response rating, Morningglory",[8]; [21],2
same,Redroot pigweed plant response rating,[9]; [16],0
same,Redroot pigweed plant response rating (0 to 10 scale),"[9]; Preemergence, Rate 125 g/ha",0
same,Redroot pigweed plant response rating,[9]; [17],0
same,Redroot pigweed plant response rating,[9]; [18],0
same,Redroot pigweed plant response rating,[9]; [19],0
same,Redroot pigweed plant response rating,[9]; [20],0
same,"Plant response rating, Redroot pigweed",[9]; [21],0
same,Rape plant response rating,[10]; [16],0
same,Rape plant response rating (0 to 10 scale),"[10]; Preemergence, Rate 125 g/ha",0
same,Rape plant response rating,[10]; [17],0
same,Rape plant response rating,[10]; [18],0
same,Rape plant response rating,[10]; [19],0
same,Rape plant response rating,[10]; [20],0
same,"Plant response rating, Rape",[10]; [21],0
same,Soybean plant response rating,[11]; [16],0
same,Soybean plant response rating (0 to 10 scale),"[11]; Preemergence, Rate 125 g/ha",0
same,Soybean plant response rating,[11]; [17],0
same,Soybean plant response rating,[11]; [18],0
same,Soybean plant response rating,[11]; [19],1
same,Soybean plant response rating,[11]; [20],1
same,"Plant response rating, Soybean",[11]; [21],1
same,Velvetleaf plant response rating,[12]; [16],0
same,Velvetleaf plant response rating (0 to 10 scale),"[12]; Preemergence, Rate 125 g/ha",0
same,Velvetleaf plant response rating,[12]; [17],0
same,Velvetleaf plant response rating,[12]; [18],0
same,Velvetleaf plant response rating,[12]; [19],0
same,Velvetleaf plant response rating,[12]; [20],0
same,"Plant response rating, Velvetleaf",[12]; [21],0
same,Wheat plant response rating,[13]; [16],0
same,Wheat plant response rating (0 to 10 scale),"[13]; Preemergence, Rate 125 g/ha",0
same,Wheat plant response rating,[13]; [17],0
same,Wheat plant response rating,[13]; [18],0
same,Wheat plant response rating,[13]; [19],0
same,Wheat plant response rating,[13]; [20],0
same,"Plant response rating, Wheat",[13]; [21],0
same,Wild oats plant response rating,[14]; [16],0
same,Wild oats plant response rating (0 to 10 scale),"[14]; Preemergence, Rate 125 g/ha",0
same,Wild oats plant response rating,[14]; [17],0
same,Wild oats plant response rating,[14]; [18],0
same,Wild oats plant response rating,[14]; [19],0
same,Wild oats plant response rating,[14]; [20],0
same,"Plant response rating, Wild oats",[14]; [21],0
same,Nutsedge plant response rating,[15]; [16],0
same,Nutsedge plant response rating (0 to 10 scale),"[15]; Preemergence, Rate 125 g/ha",0
same,Nutsedge plant response rating,[15]; [17],0
same,Nutsedge plant response rating,[15]; [18],0
same,Nutsedge plant response rating,[15]; [19],0
same,Nutsedge plant response rating,[15]; [20],0
same,"Plant response rating, Nutsedge",[15]; [21],0
